This is an account of results in ChEMBL document CHEMBL1137252, “Substituted 5-benzyl-2-phenyl-5H-imidazo[4,5-c]pyridines: a new class of pestivirus inhibitors” (Bioorg Med Chem Lett, 2006).

Calls of active or inactive are those of the source. The rule behind the calls is not given here.

The nature of data set [1]: Selectivity index, CC50 for MDBK cells/EC50 for BVDV NADL. The class given is functional.
Data set [2] in a line: Cytotoxicity against MDBK cells. The class given is cell-based, Bos taurus. Conditions: cattle.
Data set [3] deals with Bovine viral diarrhea virus 1. As to the kind of experiment: Antiviral activity against BVDV NADL in MDBK cells. The class given is functional, organism-based. Conditions: Bovine viral diarrhea virus isolates and strains.
For data set [4], the system named is Hepatitis C virus. As to the kind of experiment: Antiviral activity against HCV 1a. The class given is functional, organism-based. The following applies: Hepacivirus hominis; subtype 1a.

Consider `CC(c1ccccc1)n1ccc2nc(-c3ccccc3)nc-2c1` (configuration not stated), for which the “Ratio CC50/EC50” value in data set [1] is more than 48. Moreover, the CC50 (commonly the concentration giving 50% cytotoxicity) in data set [2] was more than 100000 nM. For the same compound, the EC50 (usually the concentration at which the effect is half-maximal) in data set [3] was determined as 2100 nM. The outcome in data set [4] was inactive.
As to `Ic1ccc(Cn2ccc3nc(-c4ccccc4)nc-3c2)cc1`, the “Ratio CC50/EC50” value in data set [1] worked out at 183. The CC50 in data set [2] was 22000 nM. The compound also had a concentration giving a half-maximal response (EC50) in data set [3] of 120 nM. Also, the result in data set [4] was inactive.
Turning to `c1ccc(-c2nc3ccn(Cc4cccc5ccccc45)cc-3n2)cc1`, the “Ratio CC50/EC50” value in data set [1] came out at 1017. The CC50 in data set [2] was 61000 nM. The same compound gave an EC50 in data set [3] of 60 nM. In addition, the outcome in data set [4] was inactive.
`c1ccc(-c2ccc(Cn3ccc4nc(-c5ccccc5)nc-4c3)cc2)cc1`: the “Ratio CC50/EC50” value in data set [1] is 225. In data set [2], this compound gave a CC50 of 18000 nM. The compound further gave an EC50 in data set [3] of 80 nM. In data set [4], the result was inactive.
For `COc1cccc(Cn2ccc3nc(-c4ccccc4)nc-3c2)c1`, the “Ratio CC50/EC50” value in data set [1] is recorded as more than 200. Further, the CC50 in data set [2] is more than 100000 nM. In data set [3], this compound came in with an EC50 of 500 nM. Further, the outcome in data set [4] was inactive.
With `Clc1ccc(Cn2ccc3nc(-c4ccccc4)nc-3c2)cc1`, the “Ratio CC50/EC50” value in data set [1] is more than 1250. The CC50 in data set [2] was more than 100000 nM. The EC50 in data set [3] was 80 nM. In addition, in data set [4], the result was inactive.
In the case of `c1ccc(CCCn2ccc3nc(-c4ccccc4)nc-3c2)cc1`, in data set [1], the “Ratio CC50/EC50” value was more than 143. Moreover, the CC50 in data set [2] was more than 100000 nM. In data set [3], this compound displayed an EC50 of 700 nM. The result in data set [4] was inactive.
For `COc1ccc(Cn2ccc3nc(-c4ccccc4)nc-3c2)cc1`, in that order: more than 714, more than 100000 nM, 140 nM and “inactive”.
For `Fc1cccc(F)c1Cn1cccc2nc(-c3c(F)cccc3F)nc1-2`, in that order: “<=3”, more than 100000 nM, not below 32000 nM and “inactive”.
For `FC(F)(F)c1ccccc1Cn1ccc2nc(-c3ccccc3)nc-2c1`, the “Ratio CC50/EC50” value in data set [1] is more than 67. For the same compound, in data set [2], the CC50 is more than 100000 nM. In data set [3], this compound returned an EC50 of 1500 nM. Also, the outcome in data set [4] was inactive.
For `c1ccc(OCCn2ccc3nc(-c4ccccc4)nc-3c2)cc1`, in that order: more than 370, more than 100000 nM, 270 nM and “inactive”.
For `N#Cc1ccc(Cn2ccc3nc(-c4ccccc4)nc-3c2)cc1`, in that order: more than 435, more than 100000 nM, 230 nM and “inactive”.
For `N#Cc1ccccc1Cn1ccc2nc(-c3ccccc3)nc-2c1` the same measures were more than 132, more than 100000 nM, 760 nM and “inactive”.
As for `Fc1cccc(F)c1Cn1ccc2nc(-c3c(F)cccc3F)nc-2c1`, in data set [1], the “Ratio CC50/EC50” value is given as more than 65. The CC50 in data set [2] was more than 100000 nM. Moreover, the EC50 in data set [3] amounted to 1500 nM. Besides, the outcome in data set [4] was inactive.
For `CC(C)=CCn1ccc2nc(-c3ccccc3)nc-2c1` the same measures were more than 33, more than 100000 nM, 3000 nM and “inactive”.
Turning to `Cc1cccc(Cn2ccc3nc(-c4ccccc4)nc-3c2)c1`, in data set [1], the “Ratio CC50/EC50” value was more than 167. For the same compound, the CC50 in data set [2] is more than 100000 nM. Also, in data set [3], the EC50 turned out to be 600 nM. The outcome in data set [4] was inactive.
For `c1ccc(-c2nc3ccn(Cc4ccccn4)cc-3n2)cc1`, in that order: more than 63, more than 100000 nM, 1600 nM and “inactive”.
For `Cc1ccn(Cc2c(F)cccc2F)c2nc(-c3c(F)cccc3F)nc1-2`, in that order: “<=1.1”, more than 100000 nM, not below 88000 nM and “inactive”.
